Counter-ions that a name gives are not always drawn. Like-named read-outs stand apart in the source and are kept apart here.
What was measured:
EGFR Del19/T790M/C797S = EGFR Del19/T790M/C797S (Homo sapiens, UniProt P00533, C797S/DEL746-750/T790M); assay: Biochemical EGFR kinase inhibition assay (Lance Ultra TR-FRET), triple mutant del19/T790M/C797S
Method in brief: (§1)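 Enzyme reactions lasted 1 hour at room temperature with test compounds between 0.003 and 10 μM, followed by 10 mM EDTA quench.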

EGFR L858R/C797S = EGFR L858R/C797S (Homo sapiens, UniProt P00533, C797S/L858R); assay: Biochemical EGFR kinase inhibition assay (Lance Ultra TR-FRET), double mutant L858R/C797S
Method in brief: as §1

EGFR Del19/C797S = EGFR Del19/C797S (Homo sapiens, UniProt P00533, C797S/DEL746-750); assay: Biochemical EGFR kinase inhibition assay (Lance Ultra TR-FRET), double mutant del19/C797S
Method in brief: as §1

EGFR L858R/T790M/C797S = EGFR L858R/T790M/C797S (Homo sapiens, UniProt P00533, C797S/L858R/T790M); assay: Biochemical EGFR kinase inhibition assay (Lance Ultra TR-FRET), triple mutant L858R/T790M/C797S
Method in brief: as §1

EGFR wildtype (WT) = EGFR wildtype (WT) (Homo sapiens, UniProt P00533); assay: Biochemical EGFR kinase inhibition assay (Lance Ultra TR-FRET), wildtype
Method in brief: as §1

[1] = IC50 Del19/T790M/C797S (nM), 100 μM ATP
[2] = Km ATP, read-out: IC50 Del19/T790M/C797S (nM), Km ATP
[3] = IC50 L858R/C797S (nM), 100 μM ATP
[4] = Km ATP, read-out: IC50 L858R/C797S (nM), Km ATP
[5] = IC50 Del19/C797S (nM), 100 μM ATP
[6] = Km ATP, read-out: IC50 Del19/C797S (nM), Km ATP
[7] = IC50 L858R/T790M/C797S (nM), 100 μM ATP
[8] = Km ATP, read-out: IC50 L858R/T790M/C797S (nM), Km ATP
[9] = Km ATP, read-out: IC50 WT (nM), Km ATP
[10] = ATP at Km, read-out: IC50 Del19/T790M/C797S (nM), Km ATP
[11] = ATP at Km, read-out: IC50 L858R/C797S (nM), Km ATP
[12] = ATP at Km, read-out: IC50 Del19/C797S (nM), Km ATP
[13] = ATP at Km, read-out: IC50 L858R/T790M/C797S (nM), Km ATP
[14] = ATP at Km, read-out: IC50 WT (nM), Km ATP

Sequence of EGFR L858R/C797S (P00533 25-1210 C797S/L858R): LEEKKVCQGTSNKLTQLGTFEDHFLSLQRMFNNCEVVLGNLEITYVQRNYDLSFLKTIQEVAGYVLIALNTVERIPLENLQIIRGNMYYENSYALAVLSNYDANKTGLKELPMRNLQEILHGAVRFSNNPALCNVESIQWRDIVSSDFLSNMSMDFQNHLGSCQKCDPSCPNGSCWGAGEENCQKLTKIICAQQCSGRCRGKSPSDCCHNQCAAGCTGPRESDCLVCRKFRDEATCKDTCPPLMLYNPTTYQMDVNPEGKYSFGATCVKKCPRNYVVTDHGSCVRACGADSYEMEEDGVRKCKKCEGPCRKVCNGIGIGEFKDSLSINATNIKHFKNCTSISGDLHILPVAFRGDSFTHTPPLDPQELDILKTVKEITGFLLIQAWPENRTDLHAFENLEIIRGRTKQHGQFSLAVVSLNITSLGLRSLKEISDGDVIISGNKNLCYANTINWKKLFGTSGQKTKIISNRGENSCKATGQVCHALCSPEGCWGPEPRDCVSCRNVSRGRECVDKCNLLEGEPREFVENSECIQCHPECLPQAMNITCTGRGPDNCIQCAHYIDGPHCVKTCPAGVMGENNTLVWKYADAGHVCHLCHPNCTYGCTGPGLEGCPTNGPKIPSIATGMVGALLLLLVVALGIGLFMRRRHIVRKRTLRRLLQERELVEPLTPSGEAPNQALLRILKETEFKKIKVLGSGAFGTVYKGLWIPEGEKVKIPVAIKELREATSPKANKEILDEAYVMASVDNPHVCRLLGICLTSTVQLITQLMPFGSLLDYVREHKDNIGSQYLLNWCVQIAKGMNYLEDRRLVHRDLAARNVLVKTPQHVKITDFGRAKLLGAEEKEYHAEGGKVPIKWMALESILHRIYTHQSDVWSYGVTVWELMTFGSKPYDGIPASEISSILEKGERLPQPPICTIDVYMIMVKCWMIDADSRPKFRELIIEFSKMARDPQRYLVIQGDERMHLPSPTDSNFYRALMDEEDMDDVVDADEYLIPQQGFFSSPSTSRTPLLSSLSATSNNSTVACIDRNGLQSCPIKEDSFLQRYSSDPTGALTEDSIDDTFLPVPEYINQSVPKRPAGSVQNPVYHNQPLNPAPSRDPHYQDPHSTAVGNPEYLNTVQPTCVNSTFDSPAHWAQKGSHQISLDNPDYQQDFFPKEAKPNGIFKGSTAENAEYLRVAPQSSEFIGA
Sequence of EGFR wildtype (WT) (P00533 25-1210): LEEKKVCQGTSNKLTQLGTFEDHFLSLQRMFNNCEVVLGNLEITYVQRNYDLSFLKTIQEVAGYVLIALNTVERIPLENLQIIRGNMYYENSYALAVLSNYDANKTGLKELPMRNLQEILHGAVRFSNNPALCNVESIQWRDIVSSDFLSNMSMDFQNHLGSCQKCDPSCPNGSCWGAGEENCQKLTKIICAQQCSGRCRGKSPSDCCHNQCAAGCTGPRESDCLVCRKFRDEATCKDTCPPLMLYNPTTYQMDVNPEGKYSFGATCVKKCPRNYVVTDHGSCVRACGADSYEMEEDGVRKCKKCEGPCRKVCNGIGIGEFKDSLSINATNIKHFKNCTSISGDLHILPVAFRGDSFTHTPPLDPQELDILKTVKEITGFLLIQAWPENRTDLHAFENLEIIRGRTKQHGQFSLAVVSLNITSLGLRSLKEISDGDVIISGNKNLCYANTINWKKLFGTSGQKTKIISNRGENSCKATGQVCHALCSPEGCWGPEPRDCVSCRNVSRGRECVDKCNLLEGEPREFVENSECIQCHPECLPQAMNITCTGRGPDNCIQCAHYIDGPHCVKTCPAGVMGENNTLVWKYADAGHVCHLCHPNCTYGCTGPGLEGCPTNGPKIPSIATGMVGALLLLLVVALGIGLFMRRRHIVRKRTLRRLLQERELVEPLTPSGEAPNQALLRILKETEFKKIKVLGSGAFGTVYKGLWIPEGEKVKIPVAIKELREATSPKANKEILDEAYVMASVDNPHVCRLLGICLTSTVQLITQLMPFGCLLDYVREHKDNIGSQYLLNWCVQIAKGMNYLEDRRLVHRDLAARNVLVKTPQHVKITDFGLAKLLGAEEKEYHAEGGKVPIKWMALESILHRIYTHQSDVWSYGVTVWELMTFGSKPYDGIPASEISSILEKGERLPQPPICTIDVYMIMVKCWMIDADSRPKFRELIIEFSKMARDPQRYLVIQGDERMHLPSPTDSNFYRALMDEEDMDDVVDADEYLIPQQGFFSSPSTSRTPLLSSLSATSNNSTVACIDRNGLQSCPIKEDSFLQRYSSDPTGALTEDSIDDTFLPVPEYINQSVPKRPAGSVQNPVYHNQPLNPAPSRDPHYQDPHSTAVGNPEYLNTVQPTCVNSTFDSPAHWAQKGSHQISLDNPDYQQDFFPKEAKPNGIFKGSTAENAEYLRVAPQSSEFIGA
Sequence of EGFR Del19/T790M/C797S (P00533 with tags, fused parts or gaps DEL746-750/T790M/C797S): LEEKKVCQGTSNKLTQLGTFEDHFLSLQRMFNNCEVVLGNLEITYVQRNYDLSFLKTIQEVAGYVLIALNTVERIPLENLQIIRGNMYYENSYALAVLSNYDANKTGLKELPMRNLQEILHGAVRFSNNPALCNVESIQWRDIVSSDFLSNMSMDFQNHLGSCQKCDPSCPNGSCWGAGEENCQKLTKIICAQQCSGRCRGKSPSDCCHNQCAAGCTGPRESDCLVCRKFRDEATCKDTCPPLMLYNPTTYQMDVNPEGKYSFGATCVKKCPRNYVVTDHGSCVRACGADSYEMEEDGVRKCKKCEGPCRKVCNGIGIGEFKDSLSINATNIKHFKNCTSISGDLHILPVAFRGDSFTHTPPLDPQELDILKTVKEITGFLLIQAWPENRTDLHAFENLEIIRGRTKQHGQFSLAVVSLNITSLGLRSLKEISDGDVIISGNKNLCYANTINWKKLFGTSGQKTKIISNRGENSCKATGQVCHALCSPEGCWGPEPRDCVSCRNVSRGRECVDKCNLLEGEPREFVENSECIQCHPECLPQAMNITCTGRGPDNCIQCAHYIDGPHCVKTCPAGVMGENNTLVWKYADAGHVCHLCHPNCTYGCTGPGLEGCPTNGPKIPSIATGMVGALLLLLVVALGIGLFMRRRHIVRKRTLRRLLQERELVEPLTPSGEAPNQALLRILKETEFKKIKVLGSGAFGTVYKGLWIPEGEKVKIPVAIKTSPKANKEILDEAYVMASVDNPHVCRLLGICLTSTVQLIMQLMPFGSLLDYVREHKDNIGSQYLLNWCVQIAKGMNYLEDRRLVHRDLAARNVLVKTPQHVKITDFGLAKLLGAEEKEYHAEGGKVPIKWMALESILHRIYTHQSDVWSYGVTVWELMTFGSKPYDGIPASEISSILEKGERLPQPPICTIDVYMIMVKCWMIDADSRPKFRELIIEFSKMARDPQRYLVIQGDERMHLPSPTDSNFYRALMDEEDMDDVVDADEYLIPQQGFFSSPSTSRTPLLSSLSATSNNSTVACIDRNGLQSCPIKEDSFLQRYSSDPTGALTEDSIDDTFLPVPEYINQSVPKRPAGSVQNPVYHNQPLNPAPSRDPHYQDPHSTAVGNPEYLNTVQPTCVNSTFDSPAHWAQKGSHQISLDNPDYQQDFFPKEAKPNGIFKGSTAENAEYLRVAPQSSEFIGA
Sequence of EGFR Del19/C797S (P00533 with tags, fused parts or gaps DEL746-750/C797S): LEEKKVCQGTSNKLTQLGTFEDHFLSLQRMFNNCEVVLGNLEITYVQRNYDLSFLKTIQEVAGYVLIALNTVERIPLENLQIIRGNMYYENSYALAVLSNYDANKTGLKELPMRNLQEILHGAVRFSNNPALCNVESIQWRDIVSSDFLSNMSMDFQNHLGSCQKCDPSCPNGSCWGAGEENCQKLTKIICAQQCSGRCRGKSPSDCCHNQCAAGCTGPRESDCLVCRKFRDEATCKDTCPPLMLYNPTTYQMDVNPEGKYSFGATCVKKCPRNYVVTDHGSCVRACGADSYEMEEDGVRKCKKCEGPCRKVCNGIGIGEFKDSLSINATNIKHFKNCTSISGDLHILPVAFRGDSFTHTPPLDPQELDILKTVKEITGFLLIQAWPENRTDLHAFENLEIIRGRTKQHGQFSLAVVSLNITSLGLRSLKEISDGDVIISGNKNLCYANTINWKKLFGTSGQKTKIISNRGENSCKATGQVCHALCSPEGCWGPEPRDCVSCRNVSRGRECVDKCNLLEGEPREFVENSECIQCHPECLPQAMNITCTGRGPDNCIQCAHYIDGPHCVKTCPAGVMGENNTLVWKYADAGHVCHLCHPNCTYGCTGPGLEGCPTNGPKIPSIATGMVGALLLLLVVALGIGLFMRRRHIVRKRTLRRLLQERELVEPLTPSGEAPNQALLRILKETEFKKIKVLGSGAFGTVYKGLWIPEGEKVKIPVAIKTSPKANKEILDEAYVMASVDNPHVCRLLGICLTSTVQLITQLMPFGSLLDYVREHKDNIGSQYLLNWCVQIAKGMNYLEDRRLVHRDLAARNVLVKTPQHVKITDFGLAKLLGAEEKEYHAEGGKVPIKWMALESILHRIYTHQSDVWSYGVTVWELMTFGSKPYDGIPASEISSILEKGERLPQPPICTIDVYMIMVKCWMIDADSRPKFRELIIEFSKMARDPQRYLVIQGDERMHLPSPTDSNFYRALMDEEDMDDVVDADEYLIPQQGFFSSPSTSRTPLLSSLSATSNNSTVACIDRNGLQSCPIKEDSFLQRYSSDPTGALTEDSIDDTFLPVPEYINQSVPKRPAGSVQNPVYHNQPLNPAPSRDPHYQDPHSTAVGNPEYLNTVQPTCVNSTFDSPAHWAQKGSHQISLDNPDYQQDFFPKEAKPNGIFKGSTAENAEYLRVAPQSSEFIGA

| SMILES | IC50 (EGFR Del19/T790M/C797S; [1]) [nM] | IC50 (EGFR Del19/T790M/C797S; [2]) [nM] | IC50 (EGFR L858R/C797S; [3]) [nM] | IC50 (EGFR L858R/C797S; [4]) [nM] | IC50 (EGFR Del19/C797S; [5]) [nM] | IC50 (EGFR Del19/C797S; [6]) [nM] | IC50 (EGFR L858R/T790M/C797S; [7]) [nM] | IC50 (EGFR L858R/T790M/C797S; [8]) [nM] | IC50 (EGFR wildtype (WT); IC50 WT (nM), 100 μM ATP) [nM] | IC50 (EGFR wildtype (WT); [9]) [nM] | IC50 (EGFR Del19/T790M/C797S; [10]) [nM] | IC50 (EGFR L858R/C797S; [11]) [nM] | IC50 (EGFR Del19/C797S; [12]) [nM] | IC50 (EGFR L858R/T790M/C797S; [13]) [nM] | IC50 (EGFR wildtype (WT); [14]) [nM] |
| --- | --- | --- | --- | --- | --- | --- | --- | --- | --- | --- | --- | --- | --- | --- | --- |
| O=S(=O)(C1CC1)n1cc(-c2nccc(Nc3cc(N4[C@@H]5CC[C@H]4C[C@H](CO)C5)c(C#Cc4cnn(C(F)(F)F)c4)cn3)n2)cn1 [Example 332, ((1R,3s,5S)-8-(2-((2-(1-(Cyclopropylsulfonyl)-1H-pyrazol-4-yl)pyrimidin-4-yl)amino)-5-((1-(trifluoromethyl)-1H-pyrazol-4-yl)ethynyl)pyridin-4-yl)-8-azabicyclo[3.2.1]octan-3-yl)methanol] | 23.9 | 18.9 | > 10000 | 845 | 1730 | 800 | 21.6 | 7.8 | > 10000 | 801 | – | – | – | – | – |
| O=S(=O)(C1CC1)n1cc(-c2nccc(Nc3cc(N[C@H]4CC[C@@H](CO)CC4)c(C#Cc4cnn(C(F)F)c4)cn3)n2)cn1 [Example 308, ((1s,4s)-4-((2-((2-(1-(Cyclopropylsulfonyl)-1H-pyrazol-4-yl)pyrimidin-4-yl)amino)-5-((1-(difluoromethyl)-1H-pyrazol-4-yl)ethynyl)pyridin-4-yl)amino)cyclohexyl)methanol] | 3.5 | – | 75 | – | 2.8 | – | 2.3 | – | > 10000 | – | 4.8 | 3.7 | 1.6 | 3.2 | 39.4 |
| Cn1cnc(C#Cc2cnc(Nc3ccnc(-c4cnn(S(=O)(=O)C5CC5)c4)n3)cc2N[C@H]2CC[C@@H](O)CC2)n1 [Example 167, (1s,4s)-4-((2-((2-(1-(Cyclopropylsulfonyl)-1H-pyrazol-4-yl)pyrimidin-4-yl)amino)-5-((1-methyl-1,2,4-triazol-3-yl)ethynyl)pyridin-4-yl)amino)cyclohexan-1-ol] | 3.4 | – | 532 | – | 88.8 | – | 15.4 | – | > 10000 | – | 3.7 | 24 | 81.8 | 3.5 | 279 |
| CN(C)CC1(C)CCN(c2cc(Nc3ccnc(-c4cnn(S(=O)(=O)C5CC5)c4)n3)ncc2C#CC2CCO[C@H]2C(F)(F)F)CC1 (stereo partly drawn) [Example 418, 2-(1-(Cyclopropylsulfonyl)-1H-pyrazol-4-yl)-N-(4-(4-((dimethylamino)methyl)-4-methylpiperidin-1-yl)-5-(((2R)-2-(trifluoromethyl)tetrahydrofuran-3-yl)ethynyl)pyridin-2-yl)pyrimidin-4-amine] | 1.1 | – | 235 | – | 10.1 | – | 2.3 | – | > 10000 | – | – | – | – | – | – |
| CC1(O)CCC(CNc2cc(Nc3ccnc(-c4cnn(S(=O)(=O)C5CC5)c4)n3)ncc2C#CC2CCCO2)CC1 (stereo not shown) [Example 377, (1 r,4r)-4-(((2-((2-(1-(Cyclopropylsulfonyl)-1H-pyrazol-4-yl)pyrimidin-4-yl)amino)-5-((tetrahydrofuran-2-yl)ethynyl)pyridin-4-yl)amino)methyl)-1-methylcyclohexan-1-ol] | 4.1 | 3 | 1550 | 52.2 | 34.6 | 20.3 | 10.6 | 1.2 | > 10000 | 132 | – | – | – | – | – |
| CC1(CO)CCN(c2cc(Nc3ccnc(-c4cnn(S(=O)(=O)C5CC5)c4)n3)ncc2C#Cc2ccc(C(=O)N3CCOCC3)cc2)CC1 [Example 263, (4-((6-((2-(1-(Cyclopropylsulfonyl)-1H-pyrazol-4-yl)pyrimidin-4-yl)amino)-4-(4-(hydroxymethyl)-4-methylpiperidin-1-yl)pyridin-3-yl)ethynyl)phenyl)(morpholino)methanone] | 1.5 | – | 3.2 | – | 1.3 | – | 1.2 | – | > 10000 | – | 1.1 | 0.7 | 0.8 | 0.4 | 3 |
| CC1(C#Cc2cnc(Nc3ccnc(-c4cnn(S(=O)(=O)C5CC5)c4)n3)cc2N2CCC(C)(CO)CC2)CC1 [Example 358, (1-(2-((2-(1-(Cyclopropylsulfonyl)-1H-pyrazol-4-yl)pyrimidin-4-yl)amino)-5-((1-methylcyclopropyl)ethynyl)pyridin-4-yl)-4-methylpiperidin-4-yl)methanol] | 1.7 | 1.2 | 30.2 | 3.8 | 3.7 | 1.9 | 1.6 | 0.7 | 6280 | 22.9 | – | – | – | – | – |
| O=S(=O)(C1CC1)n1cc(-c2nccc(Nc3cc(N[C@H]4CC[C@](O)(CO)CC4)c(C#Cc4cnn(C(F)F)c4)cn3)n2)cn1 [Example 304, (1s,4s)-4-((2-((2-(1-(Cyclopropylsulfonyl)-1H-pyrazol-4-yl)pyrimidin-4-yl)amino)-5-((1-(difluoromethyl)-1H-pyrazol-4-yl)ethynyl)pyridin-4-yl)amino)-1-(hydroxymethyl)cyclohexan-1-ol] | 2.7 | – | 103 | – | 64 | – | 5.3 | – | > 10000 | – | – | – | – | – | – |
| CN(C)CCC1CCN(c2cc(Nc3ccnc(-c4cnn(S(=O)(=O)C5CC5)c4)n3)ncc2C#Cc2cnn(C)c2)CC1 [Example 294, 2-(1-(Cyclopropylsulfonyl)-1H-pyrazol-4-yl)-N-(4-(4-(2-(dimethylamino)ethyl)piperidin-1-yl)-5-((1-methyl-1H-pyrazol-4-yl)ethynyl)pyridin-2-yl)pyrimidin-4-amine formate] | 0.1 | – | 1.6 | – | 0.2 | – | 0.1 | – | 351 | – | 0.1 | 0.3 | 0.2 | 0.1 | 0.6 |
| CC1(C#Cc2cnc(Nc3ccnc(-c4cnn(S(=O)(=O)C5CC5)c4)n3)cc2N2CCC(C)(CO)CC2)CCOCC1 [Example 183, (1-(2-((2-(1-(Cyclopropylsulfonyl)-1H-pyrazol-4-yl)pyrimidin-4-yl)amino)-5-((4-methyltetrahydro-2H-pyran-4-yl)ethynyl)pyridin-4-yl)-4-methylpiperidin-4-yl)methanol] | 1.9 | – | 400 | – | 43.9 | – | 4.1 | – | > 10000 | – | 2 | 26.9 | 11.7 | 0.9 | 146 |
| CN1CCC(C#Cc2cnc(Nc3ccnc(-c4cnn(S(=O)(=O)C5CC5)c4)n3)cc2N2CCC(C)(CO)CC2)C1 (stereo not shown) [Example 180, (1-(2-((2-(1-(Cyclopropylsulfonyl)-1H-pyrazol-4-yl)pyrimidin-4-yl)amino)-5-((1-methylpyrrolidin-3-yl)ethynyl)pyridin-4-yl)-4-methylpiperidin-4-yl)methanol] | 0.1 | – | 2.7 | – | 0.3 | – | 0.1 | – | 1100 | – | 0.2 | 0.4 | 0.5 | 0.1 | 2.8 |

— US11981658B2, “Substituted aminopyridine compounds as EGFR inhibitors” (YUHAN CORPORATION, priority 2021, dated 2024)
